This note sets out measurements from article PMC7606612, “Identification of HMGA2 inhibitors by AlphaScreen-based ultra-high-throughput screening assays” (Scientific Reports, 2020).

Data set [1] has as its target T1, HMGA2-DNA interactions (Mus musculus, UniProt P52927).
T1 construct: made in house
T1 sequence (P52927 2-108 limits assumed): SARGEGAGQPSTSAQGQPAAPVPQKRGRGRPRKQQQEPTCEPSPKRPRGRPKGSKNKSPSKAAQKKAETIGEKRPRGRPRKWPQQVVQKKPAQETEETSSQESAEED
The experiment in a line: AlphaScreen primary uHTS assay of His-tagged HMGA2 binding to biotin-labeled DNA oligomer FL814. On the set-up: species or system mammalian. As to the method:
To address these limitations, we established a new assay using AlphaScreen technology. The assay entails binding a biotin-labeled DNA oligomer FL814 and His-tagged HMGA2 to streptavidin-coated donor beads and nickel chelate (Ni-NTA) acceptor beads, respectively (Fig. 1). A series of DNA binding studies were performed to determine the optimal conditions for the AlphaScreen Primary Assay (Fig. S1a–d). […] These two inhibitors are readily available for purchase and served as positive controls for HMGA2-DNA interaction inhibition in the assay.
Using a Labcyte Echo 555 acoustic dispenser 5 nL of DMSO were added to columns 1–4 and 45–48 of a white 1536 well plate, while 5 nL of 2 mM compounds in DMSO were added to columns 5–44. Using a Beckman BioRAPTR FRD bulk reagent dispenser 1 µL of assay buffer (30 mM Citrate, 300 mM NaCl, and 0.005% Tween 20) was added to columns 1 and 2. Next 1 µL of assay buffer containing 125 nM HMGA2 was added to columns 3–48 with a Beckman BioRAPTR FRD bulk reagent dispenser. Finally, 1 µL of assay buffer containing 25 nM FL814 was added to every well of the plate using a Beckman BioRAPTR FRD bulk reagent dispenser. The plate was then centrifuged at 200 × g for 1 min. After 30 min at room temperature, 2 µL of bead buffer (10 mM HEPES, 300 mM NaCl and 0.005% Tween 20) containing 20 µg/mL anti-6xHIS acceptor beads and 20 µg/mL streptavidin donor beads were dispensed into every well using a Beckman BioRAPTR FRD bulk reagent dispenser. The plates were then centrifuged at 200 × g for 1 min. After 1 h at room temperature the plates were read on a Perkin Elmer Envision multimode plate reader in AlphaScreen mode.

Data set [2] addresses “AT-hook” peptide 3 (ATHP3) (Homo sapiens, UniProt P52926). The data set can be described thus: Isothermal titration calorimetry (ITC), titration into ATHP3. The data set is classed as binding. The method, then:
ITC experiments were conducted using a VP-ITC titration calorimeter (MicroCal, Inc., Northampton, MA) interfaced to a PC. Origin 7.0, supplied by the manufacturer was used for data acquisition. […] The heat liberated or absorbed is observed as a peak corresponding to the power required keeping the sample and reference cells at identical temperatures. The peak produced during the injection is converted to heat output by integration and corrected for cell volume and sample concentration. […] The net enthalpy for the titration reaction was determined by subtraction of the component heats of dilution.
On the technique in general: ITC needs no label: the signal is the heat of the interaction.

Data set [3] deals with human epidermoid carcinoma cell line, A431. The experiment in a line: Cytotoxicity / cell viability assay (ATPlite). The data set is classed as cell-based. The note with it: human A-431 cells, 48 h. The method, then: In this study, we also developed a LANCE time-resolved fluorescence energy transfer (TR-FRET) assay as a secondary assay for our screening. The His-tagged HMGA2 and biotinylated oligomer FL814 were linked to Europium-labeled anti-6 × His antibody and APC-labeled streptavidin, respectively. A series of DNA binding studies were performed to determine the optimal conditions for the secondary Assay (Fig. S2). After these experiments, 12.5 nM of FL814 and 62.5 nM of HMGA2 were chosen for the assay, which is the same for the primary assay. The assay tolerated up to 0.25% DMSO without any significant change in signal (Fig. S2c). For a counterscreen assay to exclude those compounds that nonspecifically bind to the protein surface, an AlphaScreen assay of H4 peptide binding to bromodomain-containing protein 4 (BRD4) was adopted (Fig. S2e). Since we are looking for compounds with anti-metastasis or anti-obesity activities, compounds with high levels of cytotoxicity are undesirable. […]
A-431 cells were grown in media (DMEM + 10% FBS + 1 × Penicillin/Streptomycin + 2 mM L-glutamine) at 37 °C in a humidified incubator with 5% CO2 to 70% confluency. […] After 10 min the plates were read using a Perkin Elmer Viewlux multimode plate reader in luminescence mode.
For orientation: Cellular ATP, detected with luciferase, serves as a proxy for viable cell number.

In data set [4] the test system is BTSC#83. The data set can be described thus: Western blotting and qRT-PCR expression analysis, BTSC#83. The format is cell-based. As to the method:
(§1) The single-cell suspension was obtained by mechanical disaggregation of the spheres and total proteins were extracted 48 h later, as previously described. After separation by SDS–polyacrylamide gel electrophoresis, proteins were blotted on nitrocellulose membranes (GE Healthcare Europe Gmb) and hybridized with the following antibodies: anti-HMGA1, anti-HMGA2 (Genetex) or affinity-purified anti-HMGA2, anti-α-actin (SantaCruz Biotechnologies). The single-cell suspension was obtained by mechanical disaggregation of the spheres and RNA was extracted 48 h later, by using Direct-zol RNA MiniPrep (Zymo Research). One μg of RNA was retrotranscribed, by using QuantiTect® Reverse Transcription Kit (Qiagen) and qRT-PCR was performed as described. The 2^–ΔΔCt formula was used to calculate the differential gene expression.

In data set [5] the test system is BTSC#30p. The experiment in a line: Light microscopy of morphology / differentiation, BTSC#30p. The data set is classed as cell-based. The note with it: 100 µM and 200 µM, 6 days.
Data set [6] has as its system BTSC#30p. The experiment in a line: Western blotting and qRT-PCR expression analysis, BTSC#30p. The data set is classed as cell-based. The method, then: as §1

Molecules are shown by their SMILES. Values joined by “and” are separate entries in the source; they are usually repeats but may differ in a detail not shown here. Equal entries are not always repeated.

`Cc1ccc(C(=O)Nc2ccc(S(=O)(=O)O)c3cc(S(=O)(=O)O)cc(S(=O)(=O)O)c23)cc1NC(=O)c1cccc(NC(=O)Nc2cccc(C(=O)Nc3cc(C(=O)Nc4ccc(S(=O)(=O)O)c5cc(S(=O)(=O)O)cc(S(=O)(=O)O)c45)ccc3C)c2)c1` [suramin] showed an inhibition at 5 µM in data set [1] (LOPAC1280 screen, final concentration of 5 µM) of at least 50%. The “inhibition of HMGA2-DNA interactions (in words)” value in data set [1] (confirmed hits that do not bind to DNA) is on record as “strongly inhibit HMGA2-DNA interactions”. Moreover, the IC50 in data set [1] (titration, HMGA2-FL814 interactions, Fig. 3a) is 2580 nM and 2600 nM. Besides, the “− TΔS” value in data set [2] is on record as 6.75 kcal/mol. Further, in data set [2] (first line, read-out: ATHP3 Ka (M^−1) (converted)), the Kd is 24.6 nM. Moreover, the “ATHP3 Binding site” value in data set [2] (number of sites, first line) was 0.98. For the same compound, the cytotoxicity result in data set [3] is given as “not cytotoxic”. In addition, in data set [4] (Western blotting and qRT-PCR), the “expression of HMGA1” value is recorded as “slightly reduced” and the “expression of HMGA2” value is “slightly reduced”. In data set [4] (qRT-PCR, 100 µM for 48 h), the “expression of SNAIL” value was “significantly reduced”. In addition, the “cell morphology / induction of differentiation” value in data set [5] is “acquire flat epithelial morphology”. In data set [6] (100 μM for 48 h), the ID2 expression result is “induces reduction in ID2 expression”. For the same compound, in data set [6] (Western blotting and qRT-PCR), the “expression of HMGA1” value is given as “slightly reduced” and the “expression of HMGA2” value was “slightly reduced”. For the same compound, the “expression of SNAIL” value in data set [6] (qRT-PCR, 100 µM for 48 h) is on record as “significantly reduced”. In addition, in data set [6] (qRT-PCR, 100 µM for 9 days), the “expression of ID2” value is on record as “significantly reduced”, the “expression of MSI1” value is on record as “significantly reduced” and the “expression of OLIG2” value is given as “increased”.

The inhibition is the share of the control response that was lost under treatment. Low values mean a response near the control, high ones a response far below the control. One may read the IC50 as the concentration that inhibits the measured activity by half. Read a high IC50 as a need for much substance.
